Results from BindingDB's records for doi:10.1038/nchembio.2208 (Novartis Pharma, 2016).

Experiments:
[1] = target: T1, Kallikrein-7 [37-253,Y180R] (Homo sapiens, UniProt P49862, Y180R); test: Human KLK7 Fluorescence-Lifetime Assay; conditions: pH 5.6; 25 °C
T1 construct: 37-253
Protocol: The enzyme reaction was initiated by addition of the substrate Ac-[…]PT14)-Glu-NH2 (0.8 μM; Biosyntan, Berlin, Germany, product BS-#7599). Fluorescence-lifetime measurements were conducted on an Ultra Evolution fluorescence lifetime reader (TECAN, M nnedorf, Switzerland). The excitation light source was a semiconductor laser at 405 nm, producing picosecond light pulses with a selected repetition frequency of 10 MHz. The emission was collected through a 450 nm bandpass filter with 25 nm bandwidth. The measurement time per well was set to 1 s, yielding approximately 1,000 counts in the peak channel. The parameters used as assay readout were the mono-exponential lifetimes.

[2] = target: T2, Complement factor D [24-253] (Mus musculus, UniProt P03953); test: Complement FD Thioesterolysis Assay; conditions: pH 7.5; 25 °C
T2 construct: 24-253
T2 sequence (P03953 whole entry): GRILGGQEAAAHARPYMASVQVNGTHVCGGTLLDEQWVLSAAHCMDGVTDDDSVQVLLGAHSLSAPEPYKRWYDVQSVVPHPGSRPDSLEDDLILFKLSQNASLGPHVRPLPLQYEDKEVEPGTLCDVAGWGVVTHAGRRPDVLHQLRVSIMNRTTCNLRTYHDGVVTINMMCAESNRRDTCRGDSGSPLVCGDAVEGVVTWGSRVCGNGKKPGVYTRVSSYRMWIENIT

[3] = target: T3, Complement factor B [470-764] (UniProt P00751); test: Human FB Proteolysis Assay (ELISA C3a); conditions: pH 7.4; 4 °C
T3 construct: 470-764
T3 sequence (P00751 470-764): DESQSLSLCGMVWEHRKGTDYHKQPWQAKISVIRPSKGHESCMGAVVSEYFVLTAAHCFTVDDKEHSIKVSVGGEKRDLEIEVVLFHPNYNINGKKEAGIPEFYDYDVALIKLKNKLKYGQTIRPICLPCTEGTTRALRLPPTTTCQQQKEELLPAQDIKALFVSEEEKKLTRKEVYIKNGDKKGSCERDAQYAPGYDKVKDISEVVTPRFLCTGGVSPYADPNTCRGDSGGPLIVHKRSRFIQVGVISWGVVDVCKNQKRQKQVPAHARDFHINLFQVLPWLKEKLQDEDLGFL
Protocol: The enzyme reaction was started by addition of C3 diluted in the assay buffer to a final concentration of 1 μM.

[4] = target: T4, Complement factor D [24-253] (Homo sapiens, UniProt P00746); test: Complement FD Thioesterolysis Assay; conditions: pH 7.5; 25 °C
T4 construct: 24-253
T4 sequence (P00746 24-253): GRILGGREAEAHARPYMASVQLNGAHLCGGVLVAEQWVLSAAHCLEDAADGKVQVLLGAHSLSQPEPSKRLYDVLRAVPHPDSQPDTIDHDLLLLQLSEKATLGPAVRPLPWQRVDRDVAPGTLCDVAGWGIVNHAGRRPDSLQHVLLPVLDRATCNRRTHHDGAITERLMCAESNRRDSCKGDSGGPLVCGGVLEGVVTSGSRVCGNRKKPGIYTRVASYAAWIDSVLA

T1 sequence (P49862 37-253 Y180R): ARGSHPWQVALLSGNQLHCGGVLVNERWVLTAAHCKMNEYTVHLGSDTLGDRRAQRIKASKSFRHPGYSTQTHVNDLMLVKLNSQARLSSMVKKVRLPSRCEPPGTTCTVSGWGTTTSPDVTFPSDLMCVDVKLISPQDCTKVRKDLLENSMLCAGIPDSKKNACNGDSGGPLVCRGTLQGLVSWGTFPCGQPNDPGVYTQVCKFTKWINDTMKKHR

For `NC(=O)c1nn(CC(=O)N2[C@@H]3C[C@@H]3C[C@H]2C(=O)Nc2cccc(Br)n2)c2ccccc12` [1-(2-((1R,3S,5R)-3-((6-Bromopyridin-2-yl)carbamoyl)-2-azabicyclo[3.1.0]hexan-2-yl)-2-oxoethyl)-1H-indazole-3-carboxamide (7)], which IC50 [1] is on record?
Its IC50 is over 100 µM.

How did the IC50 [2] turn out when `C[C@@H](NC(=O)[C@@H]1C[C@H]2C[C@H]2N1C(=O)Cn1nc(C(N)=O)c2ccncc21)c1cccc(Cl)c1F` [1-(2-((1R,3S,5R)-3-(((R)-1-(3-Chloro-2-fluorophenyl)ethyl)carbamoyl)-2-azabicyclo[3.1.0]hexan-2-yl)-2-oxoethyl)-1H-pyrazolo[3,4-c]pyridine-3-carboxamide (6)] was run?
Its IC50 is 0.86 µM.

And the IC50 [1]?
Its IC50 is over 100 µM.

What about the IC50 [3] of the same molecule?
Its IC50 is over 100 µM.

Which IC50 [3] does the source give for `NC(=O)c1cc2cc(OCc3cccc(C(=O)O)c3)ccc2[nH]1` [3-(((2-Carbamoyl-1H-indol-5-yl)oxy)methyl)benzoic acid (4)] here?
The IC50 was over 100 µM.

`COc1ccc(CCNC(=O)[C@@H]2CCCN2C(=O)NCc2cccc3ccccc23)cc1` [(S)-N2-(4-methoxyphenethyl)-N1-(naphthalen-1-ylmethyl)pyrrolidine-1,2-dicarboxamide (1)] was tested. Which IC50 [4] did it give?
The IC50 was over 30 µM.

And the IC50 [1]?
Its IC50 is 0.7 µM.

`Cn1cc(NC(=O)N2CCC[C@H]2C(=O)NC(c2ccccc2)c2ccccc2)c2ccccc21` [(S)-N2-benzhydryl-N1-(1-methyl-1H-indol-3-yl)pyrrolidine-1,2-dicarboxamide (5)] was tested. Which IC50 [4] did it give?
Its IC50 is 5.8 µM.

And the IC50 [1]?
The IC50 was over 100 µM.

What about the IC50 [3] of the same molecule?
Its IC50 is over 100 µM.

Which results are given for `COC(=O)c1ccccc1CNC(=O)N1CCC[C@H]1C(=O)Nc1cccc(OC(F)(F)F)c1` [Methyl (S)-2-((2-((3-(trifluoromethoxy)phenyl)carbamoyl)pyrrolidine-1-carboxamido)-methyl)benzoate (2)]?
IC50 [1]: 8.7 µM; IC50 [3]: > 100 µM
